{"source": "paper PMC4733049", "about": "“Characterization of Rv0888, a Novel Extracellular Nuclease from Mycobacterium tuberculosis” (Scientific Reports, 2016)"}
{"target": "T1, Rv0888 (Mycobacterium tuberculosis, UniProt P9WKQ1)", "T1 construct": "gene spmT", "T1 sequence (P9WKQ1 32-490 limits assumed)": "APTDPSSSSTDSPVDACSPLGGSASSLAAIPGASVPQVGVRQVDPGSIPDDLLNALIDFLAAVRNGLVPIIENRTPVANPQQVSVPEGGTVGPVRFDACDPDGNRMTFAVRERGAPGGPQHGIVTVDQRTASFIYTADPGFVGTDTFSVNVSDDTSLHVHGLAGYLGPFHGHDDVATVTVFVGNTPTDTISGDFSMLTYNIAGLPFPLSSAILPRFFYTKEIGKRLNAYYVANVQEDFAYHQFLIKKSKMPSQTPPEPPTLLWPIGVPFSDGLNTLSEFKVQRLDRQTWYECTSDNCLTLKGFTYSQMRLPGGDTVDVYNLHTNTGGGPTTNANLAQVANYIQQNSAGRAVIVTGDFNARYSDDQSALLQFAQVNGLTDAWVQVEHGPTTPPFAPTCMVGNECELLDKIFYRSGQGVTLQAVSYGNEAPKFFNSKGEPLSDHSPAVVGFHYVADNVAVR", "test": "DNase inhibition, circular plasmid DNA, agarose gel and A260 spectrophotometry", "type": "biochemical", "conditions": "pH 6.5, 5 mM CaCl2, 5 mM MnCl2, 41 °C, 1 h"}
{"molecule": "CCCCC[C@H](O)CC(=O)CCc1ccc(O)c(OC)c1", "note": "[6-Gingerol]", "relative DNase activity at 0.5, 1, 2 mM": "inhibited by four Chinese medicine monomers (Oleuropein, 6-Gingerol, Corylifolinin and Acteoside)"}
{"molecule": "C[C@@H]1O[C@@H](O[C@@H]2[C@@H](O)[C@H](OCCc3ccc(O)c(O)c3)O[C@H](CO)[C@H]2OC(=O)/C=C/c2ccc(O)c(O)c2)[C@H](O)[C@H](O)[C@H]1O", "note": "[Acteoside]", "relative DNase activity at 0.5, 1, 2 mM": "inhibited by four Chinese medicine monomers (Oleuropein, 6-Gingerol, Corylifolinin and Acteoside)"}
{"molecule": "CC(C)=CCc1c(O)ccc(C(=O)/C=C/c2ccc(O)cc2)c1O", "note": "[Corylifolinin]", "relative DNase activity at 0.5, 1, 2 mM": "inhibited by four Chinese medicine monomers (Oleuropein, 6-Gingerol, Corylifolinin and Acteoside)"}
{"molecule": "C/C=C1/[C@H](O[C@@H]2O[C@H](CO)[C@@H](O)[C@H](O)[C@H]2O)OC=C(C(=O)OC)[C@H]1CC(=O)OCCc1ccc(O)c(O)c1", "note": "[Oleuropein]", "relative DNase activity at 0.5, 1, 2 mM": "inhibited by four Chinese medicine monomers (Oleuropein, 6-Gingerol, Corylifolinin and Acteoside)"}
